# Data taken from paper PMC4818591 (ChemMedChem, 2015).
# Read-outs that look alike come from different tables or passages of the source.
# Columns and labels:
# Format in all cases: biochemical
# HDAC6 = target: T1, HDAC6 (Homo sapiens, UniProt Q9UBN7); experiment: HDAC6 isozyme inhibition; details: for selectivity over HDAC1 and HDAC3: HDAC6 versus HDAC1 and HDAC3; for selectivity over HDAC2 and HDAC10: HDAC6 versus HDAC2 and HDAC10
# T1 sequence (Q9UBN7 1-1215): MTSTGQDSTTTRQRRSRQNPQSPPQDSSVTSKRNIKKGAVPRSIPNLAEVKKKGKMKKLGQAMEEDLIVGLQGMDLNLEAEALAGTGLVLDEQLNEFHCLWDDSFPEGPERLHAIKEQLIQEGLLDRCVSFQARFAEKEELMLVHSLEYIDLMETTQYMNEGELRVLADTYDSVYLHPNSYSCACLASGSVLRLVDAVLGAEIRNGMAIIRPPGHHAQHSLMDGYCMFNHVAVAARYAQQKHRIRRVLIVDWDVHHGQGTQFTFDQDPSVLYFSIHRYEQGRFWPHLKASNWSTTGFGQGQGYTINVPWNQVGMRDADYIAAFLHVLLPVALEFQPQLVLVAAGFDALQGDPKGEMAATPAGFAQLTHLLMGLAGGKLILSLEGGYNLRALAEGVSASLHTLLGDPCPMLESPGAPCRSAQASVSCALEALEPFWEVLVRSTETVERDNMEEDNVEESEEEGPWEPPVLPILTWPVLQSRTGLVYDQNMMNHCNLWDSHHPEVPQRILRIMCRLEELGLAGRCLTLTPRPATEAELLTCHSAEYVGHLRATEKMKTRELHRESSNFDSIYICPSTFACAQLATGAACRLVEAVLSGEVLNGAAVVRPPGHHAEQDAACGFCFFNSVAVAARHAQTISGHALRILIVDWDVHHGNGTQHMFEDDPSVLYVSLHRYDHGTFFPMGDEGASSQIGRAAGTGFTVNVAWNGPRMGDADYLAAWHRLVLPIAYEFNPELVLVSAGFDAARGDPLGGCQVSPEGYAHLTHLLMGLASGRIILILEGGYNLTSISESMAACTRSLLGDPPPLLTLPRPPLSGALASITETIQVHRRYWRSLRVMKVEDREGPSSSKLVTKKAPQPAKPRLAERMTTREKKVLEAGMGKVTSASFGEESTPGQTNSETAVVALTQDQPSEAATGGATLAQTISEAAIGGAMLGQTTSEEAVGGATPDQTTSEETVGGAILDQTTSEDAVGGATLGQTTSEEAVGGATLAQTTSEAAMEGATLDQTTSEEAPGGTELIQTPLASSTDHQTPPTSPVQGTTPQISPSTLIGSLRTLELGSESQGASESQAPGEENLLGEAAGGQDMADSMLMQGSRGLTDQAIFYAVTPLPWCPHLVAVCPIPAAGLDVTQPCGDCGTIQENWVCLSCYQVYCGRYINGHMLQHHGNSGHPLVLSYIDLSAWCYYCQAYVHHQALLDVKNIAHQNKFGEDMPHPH
# HDAC1 = HDAC1 (Homo sapiens, UniProt Q13547); experiment: HDAC1 isozyme inhibition; details: for SI HDAC1/6: selectivity index
# Sequence of HDAC1 (Q13547 whole entry): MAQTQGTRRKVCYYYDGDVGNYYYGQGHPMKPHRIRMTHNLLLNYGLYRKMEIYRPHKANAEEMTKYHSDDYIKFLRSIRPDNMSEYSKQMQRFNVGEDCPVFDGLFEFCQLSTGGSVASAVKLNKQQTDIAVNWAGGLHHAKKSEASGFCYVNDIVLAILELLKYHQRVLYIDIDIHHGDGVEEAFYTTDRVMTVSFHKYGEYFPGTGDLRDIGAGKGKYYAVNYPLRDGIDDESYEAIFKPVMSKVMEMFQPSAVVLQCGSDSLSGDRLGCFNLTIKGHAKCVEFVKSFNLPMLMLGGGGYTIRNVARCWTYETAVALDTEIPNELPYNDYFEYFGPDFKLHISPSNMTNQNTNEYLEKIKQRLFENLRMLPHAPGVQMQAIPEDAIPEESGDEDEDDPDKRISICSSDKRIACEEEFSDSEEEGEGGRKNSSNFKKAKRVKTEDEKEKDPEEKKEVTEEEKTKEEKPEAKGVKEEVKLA
# HDAC3 = HDAC3 (Homo sapiens, UniProt O15379); experiment: HDAC3 isozyme inhibition; details: for SI HDAC3/6: selectivity index
# Sequence of HDAC3 (O15379 whole entry): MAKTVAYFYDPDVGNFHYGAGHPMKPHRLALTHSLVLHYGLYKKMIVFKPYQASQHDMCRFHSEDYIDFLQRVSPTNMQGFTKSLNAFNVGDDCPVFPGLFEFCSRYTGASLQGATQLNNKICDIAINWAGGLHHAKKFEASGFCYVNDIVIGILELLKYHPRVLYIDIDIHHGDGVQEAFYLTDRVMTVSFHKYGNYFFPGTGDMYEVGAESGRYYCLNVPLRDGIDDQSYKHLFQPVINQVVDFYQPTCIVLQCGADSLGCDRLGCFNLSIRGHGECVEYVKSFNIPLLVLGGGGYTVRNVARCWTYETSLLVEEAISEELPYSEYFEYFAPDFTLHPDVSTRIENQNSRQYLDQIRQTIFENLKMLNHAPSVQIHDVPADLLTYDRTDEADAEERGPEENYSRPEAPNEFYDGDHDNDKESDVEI
# Sequence of HDAC3 (Q9Y618 395-489 partner limits assumed): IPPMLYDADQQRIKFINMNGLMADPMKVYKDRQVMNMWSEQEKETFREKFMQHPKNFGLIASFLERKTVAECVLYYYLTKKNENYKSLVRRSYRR
# HDAC10 = target: T2, HDAC10 (Homo sapiens, UniProt Q969S8); experiment: HDAC10 isozyme inhibition; details: for SI HDAC10/6: selectivity index
# T2 sequence (Q969S8 1-669): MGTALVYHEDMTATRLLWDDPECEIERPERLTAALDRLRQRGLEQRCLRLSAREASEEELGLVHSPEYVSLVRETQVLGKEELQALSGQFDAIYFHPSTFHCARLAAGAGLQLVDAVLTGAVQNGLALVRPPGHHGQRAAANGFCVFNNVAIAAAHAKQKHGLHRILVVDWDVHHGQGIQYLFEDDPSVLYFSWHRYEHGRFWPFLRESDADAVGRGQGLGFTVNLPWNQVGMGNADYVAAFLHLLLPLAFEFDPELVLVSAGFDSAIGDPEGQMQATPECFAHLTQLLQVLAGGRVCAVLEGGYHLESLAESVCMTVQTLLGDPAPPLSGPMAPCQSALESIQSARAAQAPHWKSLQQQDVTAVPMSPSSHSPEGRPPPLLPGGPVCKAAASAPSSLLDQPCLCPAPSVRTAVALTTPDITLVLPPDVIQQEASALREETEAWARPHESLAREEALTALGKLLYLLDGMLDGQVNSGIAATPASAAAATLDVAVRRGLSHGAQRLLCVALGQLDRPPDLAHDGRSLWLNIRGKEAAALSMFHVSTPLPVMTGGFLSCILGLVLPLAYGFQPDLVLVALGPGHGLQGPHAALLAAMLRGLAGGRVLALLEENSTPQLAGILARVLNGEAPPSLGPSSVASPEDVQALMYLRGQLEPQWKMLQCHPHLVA
# HDAC2 = HDAC2 (Homo sapiens, UniProt Q92769); experiment: HDAC2 isozyme inhibition; details: for SI HDAC2/6: selectivity index
# Sequence of HDAC2 (Q92769 whole entry, canonical isoform): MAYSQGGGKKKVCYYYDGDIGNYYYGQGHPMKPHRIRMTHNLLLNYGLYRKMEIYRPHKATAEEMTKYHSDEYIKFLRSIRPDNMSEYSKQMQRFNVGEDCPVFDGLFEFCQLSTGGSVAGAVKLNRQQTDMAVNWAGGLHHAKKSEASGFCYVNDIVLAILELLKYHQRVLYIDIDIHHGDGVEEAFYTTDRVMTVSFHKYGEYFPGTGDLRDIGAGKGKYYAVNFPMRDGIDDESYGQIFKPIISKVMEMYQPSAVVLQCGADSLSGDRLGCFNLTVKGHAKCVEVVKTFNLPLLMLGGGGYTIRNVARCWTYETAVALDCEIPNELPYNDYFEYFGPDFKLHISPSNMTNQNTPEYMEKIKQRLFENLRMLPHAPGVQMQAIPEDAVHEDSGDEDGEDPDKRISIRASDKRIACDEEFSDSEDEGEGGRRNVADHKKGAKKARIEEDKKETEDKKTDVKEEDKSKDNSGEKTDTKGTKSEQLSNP
# [1] = read-out: HDAC Isoform, IC50, Class II, 6, duplicate, 10-dose IC50 mode, 3-fold serial dilution starting at 30 μM, average ± standard deviation
# [2] = read-out: HDAC Isoform, IC50, Class I, 1, singlet, 10-dose IC50 mode, 3-fold serial dilution starting at 30 μM, >50000 = no inhibition at 50 μM
# [3] = read-out: HDAC Isoform, IC50, Class I, 3, singlet, 10-dose IC50 mode, 3-fold serial dilution starting at 30 μM, >50000 = no inhibition at 50 μM
# [4] = read-out: HDAC Isoform, IC50, Class II, 10, singlet, 10-dose IC50 mode, 3-fold serial dilution starting at 30 μM, >50000 = no inhibition at 50 μM
# [5] = read-out: HDAC Isoform, IC50, Class I, 2, singlet, 10-dose IC50 mode, 3-fold serial dilution starting at 30 μM, >50000 = no inhibition at 50 μM
SMILES,SI HDAC1/6 (HDAC1),SI HDAC3/6 (HDAC3),SI HDAC10/6 (HDAC10),SI HDAC2/6 (HDAC2),other results
CC(C)(C)OC(=O)Nc1cccc(-c2cc(C(=O)NCCc3cc(C(=O)NO)no3)no2)c1 [Compound 7],,,,,IC50 (HDAC6; [1]): 0.0077 ± 0.0008 µM; IC50 (HDAC1; [2]): > 50 µM; IC50 (HDAC3; [3]): > 50 µM; IC50 (HDAC10; [4]): > 50 µM; IC50 (HDAC2; [5]): > 50 µM
"O=C(NO)c1cc(CCNC(=O)c2cc(-c3cccc(NC(=O)C4CCCCC4)c3)on2)on1 [Compound 11, 5-[3-[(Cyclohexanecarbonyl)amino]phenyl]-N-[2-[3-(N-hydroxycarbamoyl)isoxazol-5-yl]ethyl]isoxazole-3-carboxamide]",,,,,IC50 (HDAC1): > 50 µM; IC50 (HDAC3): > 50 µM; IC50 (HDAC10): > 50 µM; IC50 (HDAC2): > 50 µM
"O=C(Nc1cccc(-c2cc(C(=O)NCCc3cc(C(=O)NO)no3)no2)c1)c1ccccc1 [Compound 12, 5-[3-(Benzoylamino)phenyl]-N-[2-[3-(N-hydroxycarbamoyl)isoxazol-5-yl]ethyl]isoxazole-3-carboxamide]",666,1600,1050,2360,
"CC(C)(C)C(=O)Nc1cccc(-c2cc(C(=O)NCCc3cc(C(=O)NO)no3)no2)c1 [Compound 10, 5-[2-[[5-[3-[(2,2-Dimethylpropionyl)amino]phenyl]isoxazole-3-carbonyl]amino]ethyl]isoxazole-3-carbohydroxyamic Acid]",,,1910,,selectivity index (SI) (HDAC6; HDAC6 over the other isoforms tested): at least 1900; IC50 (HDAC6; [1]): 0.0212 ± 0.0009 µM; IC50 (HDAC1; [2]): > 50 µM; IC50 (HDAC3; [3]): > 50 µM; IC50 (HDAC10; [4]): 40.1 µM; IC50 (HDAC2; [5]): > 50 µM
"CC(C)(C)OC(=O)Nc1ccc(-c2cc(C(=O)NCc3ccc(C(=O)NO)cc3)no2)cc1 [Compound 13, N-[4-[3-[N-[4-(N-Hydroxycarbamoyl)benzyl]carbamoyl]isoxazol-5-yl]phenyl]carbamic Acid tert-Butyl Ester]",1320,409,9580,5760,selectivity over HDAC1 and HDAC3 (HDAC6): at least 400 fold; selectivity over HDAC2 and HDAC10 (HDAC6): more than 3 orders of magnitude
"CCOC(=O)Nc1cccc(-c2csc(NC(=O)CCc3cc(C(=O)NO)no3)n2)c1 [Compound 5, N-[3-[2-[3-[3-(N-Hydroxycarbamoyl)isoxazol-5-yl]propionylamino]thiazol-4-yl]phenyl]carbamic Acid Ethyl Ester]",80,32,82,333,
"O=C(NO)c1cc(Cn2c3ccccc3c3ccccc32)on1 [Compound 17, 5-(Carbazol-9-ylmethyl)isoxazole-3-carbohydroxamic Acid]",26,29,,,IC50 (HDAC6): 1.51 ± 0.065 µM; IC50 (HDAC1): 38.7 µM; IC50 (HDAC3): 44 µM; IC50 (HDAC10): > 50 µM; IC50 (HDAC2): > 50 µM
"O=C(NO)c1ccc(CNC(=O)c2cc(-c3cccc(NC(=O)C4CCCCC4)c3)on2)cc1 [Compound 16, 5-[3-[(Cyclohexanecarbonyl)amino]phenyl]-N-[4-(N-hydroxycarbamoyl)benzyl]isoxazole-3-carboxamide]",82,257,73,1650,
"CCOC(=O)Nc1ccc(-c2cc(C(=O)NCCc3cc(C(=O)NO)no3)no2)cc1 [Compound 8, N-[4-[3-[N-[2-[3-(N-Hydroxycarbamoyl)isoxazol-5-yl]ethyl]carbamoyl]isoxazol-5-yl]phenyl]carbamic Acid Ethyl Ester]",39,51,123,409,
"CC(C)(C)OC(=O)Nc1cccc(-c2cc(C(=O)NCc3ccc(C(=O)NO)cc3)no2)c1 [Compound 14, N-[3-[3-[N-[4-(N-Hydroxycarbamoyl)benzyl]carbamoyl]isoxazol-5-yl]phenyl]carbamic Acid tert-Butyl Ester]",694,1230,4270,2160,selectivity over HDAC1 and HDAC3 (HDAC6): at least 400 fold; selectivity over HDAC2 and HDAC10 (HDAC6): more than 3 orders of magnitude
"CC(C)(C)OC(=O)Nc1ccc(-c2cc(C(=O)NCCc3cc(C(=O)NO)no3)no2)cc1 [Compound 6, N-[4-[3-[N-[2-[3-(N-Hydroxycarbamoyl)isoxazol-5-yl]ethyl]carbamoyl]isoxazol-5-yl]phenyl]carbamic Acid tert-Butyl Ester]",2817,3800,,,selectivity for HDAC6 over all other isoforms (HDAC6; Table S1 in the supporting information (not available)): highly selective; IC50 (HDAC10; [4]): > 50 µM; IC50 (HDAC2; [5]): > 50 µM
"O=C(NO)c1ccc(CNC(=O)c2cc(-c3ccc(NC(=O)C4CCCCC4)cc3)on2)cc1 [Compound 15, 5-[4-[(Cyclohexanecarbonyl)amino]phenyl]-N-[4-(N-hydroxycarbamoyl)benzyl]isoxazole-3-carboxamide]",65,40,38,461,
"O=C(NO)c1ccc(CNC(=O)c2cc(Cn3c4ccccc4c4ccccc43)on2)cc1 [Compound 18, 5-(9H-Carbazol-9-ylmethyl)-N-[4-(hydroxycarbamoyl)benzyl]isoxazole-3-carboxamide]",825,798,37000,2280,
"CC(C)(C)OC(=O)Nc1ccc(-c2csc(NC(=O)CCCc3cc(C(=O)NO)no3)n2)cc1 [Compound 3, N-[4-[2-[4-[3-(N-Hydroxycarbamoyl)isoxazol-5-yl]butyrylamino]thiazol-4-yl]phenyl]carbamic Acid tert-Butyl Ester]",10,11,,28,
"Nc1cccc(-c2cc(C(=O)NCCc3cc(C(=O)NO)no3)no2)c1 [Compound 9, 5-(3-Aminophenyl)-N-[2-[3-(N-hydroxycarbamoyl)isoxazol-5-yl]ethyl]isoxazole-3-carboxamide]",398,105,315,140,
